Data from patent US20090068150A1, “LACTIC ACID BACTERIA CULTURE OF MUNG BEAN AND THE PREPARATION METHOD OF THE SAME, AND THE COSMETIC COMPOSITION COMPRISING THE SAME” (Doosan Corporation, priority 2005, published 2009).

How the values were obtained:
CD-1 mouse = experiment: Inflammation (skin stimulus) alleviating effect on TPA-induced ear inflammation; format: in vivo
Procedure: In order to examine the inflammation (skin stimulus) alleviating effect of the lactic acid bacteria culture of mung bean containing the mung bean extract and GABA, which was obtained in the embodiment 2, a following test was conducted according to a method used by Sheu et al. (The Journal of Investigative Dermatology, 118, pp 94-101, 2002).
First, CD-1 mouse (male & female, 6-8 weeks, Charles River, USA) were used as test objects, and as stimulus material, 10 μl of TPA (12-O-tetradecanonylphorbol-13-acetate) 0.03% (wt/vol. in acetone) solution was applied to inside and outside of both ears of the test animals. Due to the treatment material, the ear was thickened and there occurred an inflammatory reaction. After that, as a positive control group, clofibrate (1 mM) and Wy14643 (1 mM) which are agonists of PPAR CL (Sheu et al., The Journal of Investigative Dermatology, 118, pp 94-101, 2002), and as a test material, the lactic acid bacteria culture of mung bean in the embodiment 2 were applied to the both surfaces of the ears in an amount of […], respectively, at 45 minutes and 4 hours after the inflammation induction.

skin = details: applied to the skin; cited from earlier work

SMILES: Cc1cccc(Nc2cc(Cl)nc(SCC(=O)O)n2)c1C [WY14643]
- ear swelling vs control group treated with TPA only (FIG. 4) (CD-1 mouse; TPA + WY14643 (1 mM), applied 45 minutes and 4 hours after induction): the swelling was decreased
- inflammation alleviation, H&E dyed tissue slide (FIG. 5) (CD-1 mouse; positive controls 1 mM (group C Wy14643, group B clofibrate), vs TPA only): the inflammation was also alleviated
- skin inflammation due to stimulus materials after application to the skin (skin): the inflammation due to stimulus materials is decreased
